24 compounds from patent US11274101B2, “Heterocyclic compound” (Takeda Pharmaceutical Company Limited, priority 2017, dated 2022) can be followed below.

Structures are written as SMILES.

The target in this assay is T1, His-hMAGL (recombinant polyhistidine tagged human MAGL protein) (Homo sapiens, UniProt Q99685).
T1 construct: made in house; host or cells: E. coli BL21(DE3)
T1 sequence (Q99685 1-303): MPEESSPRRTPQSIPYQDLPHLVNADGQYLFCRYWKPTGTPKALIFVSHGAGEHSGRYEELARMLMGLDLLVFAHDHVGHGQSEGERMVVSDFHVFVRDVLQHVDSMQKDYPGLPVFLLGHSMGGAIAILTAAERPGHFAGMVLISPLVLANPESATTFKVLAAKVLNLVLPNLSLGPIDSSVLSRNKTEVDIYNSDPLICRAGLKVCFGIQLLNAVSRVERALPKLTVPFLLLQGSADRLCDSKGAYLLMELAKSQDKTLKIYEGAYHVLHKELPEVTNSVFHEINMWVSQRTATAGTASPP
As to the kind of experiment: Measurement of MAGL inhibitory activity (arachidonic acid production from 2-arachidonylglycerol, RapidFire-mass spectrometry). Type of assay: biochemical. As to conditions: test compound 10 μM; MAGL inhibitory rate. The method, then: The His-hMAGL obtained above was diluted with enzyme reaction buffer (10 mM Tris-HCl, pH 7.5, 1 mM EDTA, 0.025 (w/v) % Triton X-100, 0.01% Bovine serum albumin) to a concentration of 7.5 ng/mL. To each well of a 384 well assay plate (Greiner 781280) was added a solution (5 μL) of a test compound dissolved in dimethyl sulfoxide (DMSO), which was diluted with the above-mentioned enzyme reaction buffer, then His-hMAGL solution (5 μL) diluted to a concentration of 7.5 ng/mL was added, and the mixture was incubated at room temperature for 60 min. Thereafter, to each well was added 5 μL of 150 μM 2-arachidonylglycerol (Tocris Bioscience), and the mixture was incubated at room temperature for 10 min. Then, 10 μL of 2% formic acid (Wako Pure Chemical Industries, Ltd.) was added to stop the reaction. Furthermore, acetonitrile (50 μL) containing 3 μM arachidonic acid-d8 (Cayman Chemical Company) was added and the mixture was stirred.
The amount of arachidonic acid in the obtained enzyme reaction mixture was calculated by measuring by RapidFire-mass spectrometry and correcting by the amount of arachidonic acid-d8. High Throughput online solid phase extraction was performed using RapidFire 300™ system (Agilent Technologies, Inc.). Samples were loaded on SPE C4 cartridge (Agilent Technologies, Inc.) and desalted with 0.2 (v/v) % acetic acid (Wako Pure Chemical Industries, Ltd.) in ultrapure water/acetonitrile (70/30, v/v) at a flow rate of 1.5 mL/min, eluted at a flow rate of 0.5 mL/min with 0.2 (v/v) % acetic acid dissolved in acetonitrile/ultrapure water (90/10, v/v), and injected into the mass spectrometry part. The injection needle was washed with ultrapure water (500 millisecond) and acetonitrile (500 millisecond) to minimize carry-over. The suction time (injection loop 5 μL), load/cleansing time, elution time and re-equilibration time were adjusted to 300, 3000, 4250 and 1000 milliseconds, respectively, and the total cycle time was adjusted to about 10.0 seconds. The RapidFire300 system was controlled by RapidFire UI software version 3.6 (Agilent Technologies, Inc.).
The mass spectrometry of the resultant product was performed using API4000™ triple quadrupole mass spectrometer (AB SCIEX) equipped with an electrospray ion sauce (TurboIon Spray™) in a negative selected reaction monitoring (SRM) mode. The conditions of SRM are shown below. The parameters of the instrument were optimized as follows: capillary temperature 600° C., ion spray voltage −4.5 kV, collision gas 8, curtain gas 15 psi, ion source gas 1 60 psi, ion source gas 2 60 psi. The mass spectrometer was controlled by Analyst™ software version 1.5.1 (AB SCIEX). The peak area integration was analyzed using RapidFire integrator software version 3.6 (Agilent Technologies, Inc.).
MAGL inhibitory rate (%) was calculated according to the following calculation formula. (1-(arachidonic acid production amount of test compound addition group−arachidonic acid production amount of enzyme-free group)+(arachidonic acid production amount of test compound-free group−arachidonic acid production amount of enzyme-free group))×100
What is called inhibition is the relative decrease from the control value, in per cent. In the case of `Cc1cc(COC[C@H]2C[C@@H](OC(=O)N3CC4(COC(=O)N4)C3)C2)ccc1Cl` [Example 29, cis-3-(((4-chloro-3-methylbenzyl)oxy)methyl)cyclobutyl 6-oxo-7-oxa-2,5-diazaspiro [3.4]octane-2-carboxylate], the inhibition at 10 µM stood at 100%.

Regarding `C[C@]1(OC(=O)N2CC3(COC(=O)N3)C2)C[C@H](OCc2ccccc2)C1` [Example 59, trans-3-(benzyloxy)-1-methylcyclobutyl 6-oxo-7-oxa-2,5-diazaspiro[3.4]octane-2-carboxylate], the inhibition at 10 µM amounted to 99%.

Take `O=C1NC2(CO1)CN(C(=O)O[C@H]1C[C@H](OCc3ccccc3)C1)C2` [Example 42, trans-3-(benzyloxy)cyclobutyl 6-oxo-7-oxa-2,5-diazaspiro[3.4]octane-2-carboxylate]: the inhibition at 10 µM is 99%.

As for `O=C1NC2(CO1)CN(C(=O)O[C@H]1C[C@@H](Oc3ccc(C(F)(F)F)cc3)C1)C2` [Example 48, cis-3-(4-(trifluoromethyl)phenoxy)cyclobutyl 6-oxo-7-oxa-2,5-diazaspiro[3.4]octane-2-carboxylate], the inhibition at 10 µM is 100%.

As for `O=C1NC2(CO1)CN(C(=O)O[C@H]1C[C@@H](OCc3ccc(F)cc3F)C1)C2` [Example 40, cis-3-((2,4-difluorobenzyl)oxy)cyclobutyl 6-oxo-7-oxa-2,5-diazaspiro[3.4]octane-2-carboxylate], the inhibition at 10 µM was determined as 100%.

Turning to `C[C@]1(OC(=O)N2CC3(COC(=O)N3)C2)C[C@H](Oc2c(F)cc(F)cc2F)C1` [Example 61, trans-1-methyl-3-(2,4,6-trifluorophenoxy)cyclobutyl 6-oxo-7-oxa-2,5-diazaspiro[3.4]octane-2-carboxylate], the inhibition at 10 µM was 100%.

In the case of `O=C1NC2(CO1)CN(C(=O)O[C@H]1C[C@H](Oc3c(F)cc(F)cc3F)C1)C2` [Example 43, trans-3-(2,4,6-fluorophenoxy)cyclobutyl 6-oxo-7-oxa-2,5-diazaspiro[3.4]octane-2-carboxylate], the inhibition at 10 µM is 102%.

On to `O=C1NC2(CCN(C(=O)O[C@H]3C[C@@H](COc4ccc(F)c(F)c4F)C3)C2)CO1` (stereo partly drawn) [Example 35, cis-3-((2,3,4-trifluorophenoxy)methyl)cyclobutyl 2-oxo-3-oxa-1,7-diazaspiro[4.4]nonane-7-carboxylate], for which the inhibition at 10 µM was found to be 100%.

For the compound `O=C1NC2(CO1)CN(C(=O)O[C@H]1C[C@@H](COCc3ccc(F)c(F)c3F)C1)C2` [Example 31, cis-3-(((2,3,4-trifluorobenzyl)oxy)methyl)cyclobutyl 6-oxo-7-oxa-2,5-diazaspiro[3.4]octane-2-carboxylate], the inhibition at 10 µM was 100%.

In the case of `O=C1NC2(CO1)CN(C(=O)O[C@H]1C[C@@H](OCc3ccc(Cl)c(Cl)c3)C1)C2` [Example 9, cis-3-((3,4-dichlorobenzyl)oxy)cyclobutyl 6-oxo-7-oxa-2,5-diazaspiro[3.4]octane-2-carboxylate], the inhibition at 10 µM came to 99%.

With `O=C1NC2(CO1)CN(C(=O)O[C@H]1C[C@@H](OCc3ccc(F)c(F)c3)C1)C2` [Example 41, cis-3-((3,4-difluorobenzyl)oxy)cyclobutyl 6-oxo-7-oxa-2,5-diazaspiro[3.4]octane-2-carboxylate], the inhibition at 10 µM turned out to be 99%.

`O=C1NC2(CO1)CN(C(=O)O[C@H]1C[C@@H](COCc3ccc(F)cc3Cl)C1)C2` [Example 30, cis-3-(((2-chloro-4-fluorobenzyl)oxy)methyl)cyclobutyl 6-oxo-7-oxa-2,5-diazaspiro[3.4]octane-2-carboxylate]: the inhibition at 10 µM was determined as 100%.

As for `O=C1NC2(CO1)CN(C(=O)O[C@H]1C[C@H](COc3ccc(C(F)(F)F)cc3F)C1)C2` [Example 22, trans-3-((2-fluoro-4-(trifluoromethyl)phenoxy)methyl)cyclobutyl 6-oxo-7-oxa-2,5-diazaspiro[3.4]octane-2-carboxylate], the inhibition at 10 µM was 103%.

Consider `C[C@]1(Oc2ccc(F)cc2Cl)C[C@@H](OC(=O)N2CC3(COC(=O)N3)C2)C1` [Example 63, cis-3-(2-chloro-4-fluorophenoxy)-3-methylcyclobutyl 6-oxo-7-oxa-2,5-diazaspiro[3.4]octane-2-carboxylate], for which the inhibition at 10 µM turned out to be 100%.

As for `O=C1NC2(CO1)CN(C(=O)O[C@H]1C[C@H](OCc3ccc(C(F)(F)F)cc3F)C1)C2` [Example 62, trans-3-((2-fluoro-4-(trifluoromethyl)benzyl)oxy)cyclobutyl 6-oxo-7-oxa-2,5-diazaspiro[3.4]octane-2-carboxylate], the inhibition at 10 µM turned out to be 99%.

Take `O=C1NC2(CO1)CN(C(=O)O[C@H]1C[C@@H](OCc3ccccc3)C1)C2` [Example 2, cis-3-(benzyloxy)cyclobutyl 6-oxo-7-oxa-2,5-diazaspiro[3.4]octane-2-carboxylate]: the inhibition at 10 µM was 101%.

As to `C[C@]1(OC(=O)N2CC3(COC(=O)N3)C2)C[C@@H](OCc2ccccc2)C1` [Example 58, cis-3-(benzyloxy)-1-methylcyclobutyl 6-oxo-7-oxa-2,5-diazaspiro[3.4]octane-2-carboxylate], the inhibition at 10 µM was 93%.

Consider `O=C1NC2(CO1)CN(C(=O)O[C@H]1C[C@@H](Oc3ccc(F)cc3Cl)C1)C2` [Example 44, cis-3-(2-chloro-4-fluorophenoxy)cyclobutyl 6-oxo-7-oxa-2,5-diazaspiro[3.4]octane-2-carboxylate], for which the inhibition at 10 µM came out at 103%.

For `Cc1ccc(CO[C@H]2C[C@@H](OC(=O)N3CC4(COC(=O)N4)C3)C2)c(F)c1F` [Example 5, cis-3-((2,3-difluoro-4-methylbenzyl)oxy)cyclobutyl 6-oxo-7-oxa-2,5-diazaspiro[3.4]octane-2-carboxylate], the inhibition at 10 µM is 99%.

For the compound `O=C1NC2(CO1)CN(C(=O)O[C@H]1C[C@@H](Oc3cccc(Cl)c3)C1)C2` [Example 49, cis-3-(3-chlorophenoxy)cyclobutyl 6-oxo-7-oxa-2,5-diazaspiro[3.4]octane-2-carboxylate], the inhibition at 10 µM was determined as 100%.

Regarding `O=C1NC2(CO1)CN(C(=O)O[C@H]1C[C@@H](Oc3ccc(Cl)cc3)C1)C2` [Example 47, cis-3-(4-chlorophenoxy)cyclobutyl 6-oxo-7-oxa-2,5-diazaspiro[3.4]octane-2-carboxylate], the inhibition at 10 µM is 100%.

As for `O=C1NC2(CO1)CN(C(=O)O[C@H]1C[C@@H](COc3ccc(C(F)(F)F)cc3Cl)C1)C2` [Example 20, cis-3-((2-chloro-4-(trifluoromethyl)phenoxy)methyl)cyclobutyl 6-oxo-7-oxa-2,5-diazaspiro[3.4]octane-2-carboxylate], the inhibition at 10 µM turned out to be 100%.

As to `O=C1NC2(CO1)CN(C(=O)O[C@H]1C[C@@H](COCc3cc(F)c(F)cc3F)C1)C2` [Example 32, cis-3-(((2,4,5-trifluorobenzyl)oxy)methyl)cyclobutyl 6-oxo-7-oxa-2,5-diazaspiro [3.4]octane-2-carboxylate], the inhibition at 10 µM worked out at 100%.

On to `O=C1NC2(CO1)CN(C(=O)O[C@H]1C[C@@H](COc3ccc(F)cc3Cl)C1)C2` [Example 14, cis-3-((2-chloro-4-fluorophenoxy)methyl)cyclobutyl 6-oxo-7-oxa-2,5-diazaspiro[3.4]octane-2-carboxylate], for which the inhibition at 10 µM is 98%.
